Measured values published in the kinase profiling compilation of Christmann-Franck et al. (2016).

Assays:
Experiment in all cases: radiometric filter-binding kinase assay
GSK3B (human) = GSK3B (human) (UniProt P49841)
ZAP70 (human) = ZAP70 (human) (UniProt P43403)
TSSK1B (human) = TSSK1B (human) (UniProt Q9BXA7)
TTBK1 (human) = TTBK1 (human) (UniProt Q5TCY1)
SRPK1 (human) = SRPK1 (human) (UniProt Q96SB4)
PDGFRA (human) = PDGFRA (human) (UniProt P16234)
SIK3 (human) = SIK3 (human) (UniProt Q9Y2K2)
WNK1 (human) = WNK1 (human) (UniProt Q9H4A3)
CSNK1G2 (human) = CSNK1G2 (human) (UniProt P78368)
Chain of CSNK1G2 (human) (P78368 whole entry, looked up): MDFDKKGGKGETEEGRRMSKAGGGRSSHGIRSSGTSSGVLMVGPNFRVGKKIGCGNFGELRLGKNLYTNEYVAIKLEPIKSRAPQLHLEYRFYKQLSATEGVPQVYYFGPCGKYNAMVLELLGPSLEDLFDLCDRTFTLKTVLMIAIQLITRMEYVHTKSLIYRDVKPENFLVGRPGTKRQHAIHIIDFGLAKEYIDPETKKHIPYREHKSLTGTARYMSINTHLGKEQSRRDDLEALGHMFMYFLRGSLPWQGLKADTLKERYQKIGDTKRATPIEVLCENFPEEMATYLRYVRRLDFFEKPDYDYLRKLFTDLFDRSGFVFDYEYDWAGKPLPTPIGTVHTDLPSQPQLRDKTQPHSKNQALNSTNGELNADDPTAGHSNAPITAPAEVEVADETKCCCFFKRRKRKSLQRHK

[1] = test system: TGFBR1 (human), P36897 [T204D]
ULK1 (human) = ULK1 (human) (UniProt O75385)
DDR2 (human) = DDR2 (human) (UniProt Q16832)
TEK (human) = TEK (human) (UniProt Q02763)
MAP4K5 (human) = MAP4K5 (human) (UniProt Q9Y4K4)
STK24 (human) = STK24 (human) (UniProt Q9Y6E0)
TTBK2 (human) = TTBK2 (human) (UniProt Q6IQ55)
Chain of TTBK2 (human) (Q6IQ55 whole entry, looked up): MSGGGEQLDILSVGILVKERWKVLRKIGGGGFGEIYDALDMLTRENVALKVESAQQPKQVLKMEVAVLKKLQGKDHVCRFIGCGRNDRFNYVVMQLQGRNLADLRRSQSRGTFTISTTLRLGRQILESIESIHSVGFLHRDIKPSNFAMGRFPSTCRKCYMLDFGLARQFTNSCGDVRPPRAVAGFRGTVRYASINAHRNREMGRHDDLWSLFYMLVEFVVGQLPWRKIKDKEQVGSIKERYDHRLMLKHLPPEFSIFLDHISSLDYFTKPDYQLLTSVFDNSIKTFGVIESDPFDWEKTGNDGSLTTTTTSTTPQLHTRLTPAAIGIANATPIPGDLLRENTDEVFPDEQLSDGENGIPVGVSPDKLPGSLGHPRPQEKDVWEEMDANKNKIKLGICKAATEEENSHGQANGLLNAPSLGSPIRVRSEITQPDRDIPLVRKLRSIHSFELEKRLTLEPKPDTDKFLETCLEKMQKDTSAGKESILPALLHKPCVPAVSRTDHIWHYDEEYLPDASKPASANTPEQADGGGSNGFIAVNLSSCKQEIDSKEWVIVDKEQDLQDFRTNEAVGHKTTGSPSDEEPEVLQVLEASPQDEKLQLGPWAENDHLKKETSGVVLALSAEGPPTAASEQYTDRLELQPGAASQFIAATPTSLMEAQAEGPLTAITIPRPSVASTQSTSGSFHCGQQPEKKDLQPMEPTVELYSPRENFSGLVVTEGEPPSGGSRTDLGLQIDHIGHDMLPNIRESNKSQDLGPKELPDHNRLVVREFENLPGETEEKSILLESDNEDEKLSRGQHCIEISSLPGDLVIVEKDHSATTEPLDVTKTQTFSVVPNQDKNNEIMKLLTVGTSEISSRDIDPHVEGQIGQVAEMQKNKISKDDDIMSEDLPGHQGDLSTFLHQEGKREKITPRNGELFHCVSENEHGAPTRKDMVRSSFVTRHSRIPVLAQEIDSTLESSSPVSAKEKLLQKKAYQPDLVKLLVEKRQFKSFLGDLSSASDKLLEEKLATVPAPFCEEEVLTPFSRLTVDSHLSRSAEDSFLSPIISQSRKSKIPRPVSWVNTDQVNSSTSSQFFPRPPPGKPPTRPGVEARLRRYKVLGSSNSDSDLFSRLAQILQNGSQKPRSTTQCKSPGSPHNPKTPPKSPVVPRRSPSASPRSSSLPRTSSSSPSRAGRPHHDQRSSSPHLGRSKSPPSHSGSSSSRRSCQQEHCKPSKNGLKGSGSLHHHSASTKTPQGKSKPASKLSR

MAP4K3 (human) = MAP4K3 (human) (UniProt Q8IVH8)
STK33 (human) = STK33 (human) (UniProt Q9BYT3)
Chain of STK33 (human) (Q9BYT3 whole entry, looked up): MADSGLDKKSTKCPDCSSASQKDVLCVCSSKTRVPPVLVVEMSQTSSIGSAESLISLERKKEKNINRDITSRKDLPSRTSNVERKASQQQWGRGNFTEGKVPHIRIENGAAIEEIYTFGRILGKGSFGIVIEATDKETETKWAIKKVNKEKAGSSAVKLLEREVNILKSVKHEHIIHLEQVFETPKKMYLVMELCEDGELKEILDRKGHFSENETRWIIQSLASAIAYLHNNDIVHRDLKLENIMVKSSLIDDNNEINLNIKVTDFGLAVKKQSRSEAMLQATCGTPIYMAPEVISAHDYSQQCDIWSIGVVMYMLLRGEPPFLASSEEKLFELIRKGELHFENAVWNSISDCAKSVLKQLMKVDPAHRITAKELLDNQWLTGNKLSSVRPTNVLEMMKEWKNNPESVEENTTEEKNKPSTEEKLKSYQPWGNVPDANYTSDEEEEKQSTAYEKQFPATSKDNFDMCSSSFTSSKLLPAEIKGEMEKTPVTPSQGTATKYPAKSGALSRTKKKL

CDK9 CCNT1 (human) = CDK9 CCNT1 (human) (UniProt P50750+O60563)
MAPK7 (human) = MAPK7 (human) (UniProt Q13164)
[2] = target: PRKAA1 PRKAB2 PRKAG1 (human) (UniProt O43741+Q13131+P54619)
PRKCG (human) = PRKCG (human) (UniProt P05129)
[3] = test system: OXSR1 (human), O95747 [T185E]
SIK2 (human) = SIK2 (human) (UniProt Q9H0K1)
IRAK1 (human) = IRAK1 (human) (UniProt P51617)
PTK6 (human) = PTK6 (human) (UniProt Q13882)
TESK1 (human) = TESK1 (human) (UniProt Q15569)
EIF2AK3 (human) = EIF2AK3 (human) (UniProt Q9NZJ5)
ABL1 (human) = ABL1 (human) (UniProt P00519)
TLK1 (human) = TLK1 (human) (UniProt Q9UKI8)
ULK2 (human) = ULK2 (human) (UniProt Q8IYT8)
STK16 (human) = STK16 (human) (UniProt O75716)
Chain of STK16 (human) (O75716 whole entry, looked up): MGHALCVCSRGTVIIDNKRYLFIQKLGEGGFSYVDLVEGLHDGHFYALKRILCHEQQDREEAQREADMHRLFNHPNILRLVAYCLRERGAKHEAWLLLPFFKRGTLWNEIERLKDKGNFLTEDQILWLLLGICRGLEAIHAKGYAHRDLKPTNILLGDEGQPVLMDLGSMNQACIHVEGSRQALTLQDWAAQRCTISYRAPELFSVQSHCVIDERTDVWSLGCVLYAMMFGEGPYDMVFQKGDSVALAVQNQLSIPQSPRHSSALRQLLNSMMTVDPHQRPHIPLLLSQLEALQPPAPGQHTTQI

Chain of TTBK1 (human) (Q5TCY1 whole entry, looked up): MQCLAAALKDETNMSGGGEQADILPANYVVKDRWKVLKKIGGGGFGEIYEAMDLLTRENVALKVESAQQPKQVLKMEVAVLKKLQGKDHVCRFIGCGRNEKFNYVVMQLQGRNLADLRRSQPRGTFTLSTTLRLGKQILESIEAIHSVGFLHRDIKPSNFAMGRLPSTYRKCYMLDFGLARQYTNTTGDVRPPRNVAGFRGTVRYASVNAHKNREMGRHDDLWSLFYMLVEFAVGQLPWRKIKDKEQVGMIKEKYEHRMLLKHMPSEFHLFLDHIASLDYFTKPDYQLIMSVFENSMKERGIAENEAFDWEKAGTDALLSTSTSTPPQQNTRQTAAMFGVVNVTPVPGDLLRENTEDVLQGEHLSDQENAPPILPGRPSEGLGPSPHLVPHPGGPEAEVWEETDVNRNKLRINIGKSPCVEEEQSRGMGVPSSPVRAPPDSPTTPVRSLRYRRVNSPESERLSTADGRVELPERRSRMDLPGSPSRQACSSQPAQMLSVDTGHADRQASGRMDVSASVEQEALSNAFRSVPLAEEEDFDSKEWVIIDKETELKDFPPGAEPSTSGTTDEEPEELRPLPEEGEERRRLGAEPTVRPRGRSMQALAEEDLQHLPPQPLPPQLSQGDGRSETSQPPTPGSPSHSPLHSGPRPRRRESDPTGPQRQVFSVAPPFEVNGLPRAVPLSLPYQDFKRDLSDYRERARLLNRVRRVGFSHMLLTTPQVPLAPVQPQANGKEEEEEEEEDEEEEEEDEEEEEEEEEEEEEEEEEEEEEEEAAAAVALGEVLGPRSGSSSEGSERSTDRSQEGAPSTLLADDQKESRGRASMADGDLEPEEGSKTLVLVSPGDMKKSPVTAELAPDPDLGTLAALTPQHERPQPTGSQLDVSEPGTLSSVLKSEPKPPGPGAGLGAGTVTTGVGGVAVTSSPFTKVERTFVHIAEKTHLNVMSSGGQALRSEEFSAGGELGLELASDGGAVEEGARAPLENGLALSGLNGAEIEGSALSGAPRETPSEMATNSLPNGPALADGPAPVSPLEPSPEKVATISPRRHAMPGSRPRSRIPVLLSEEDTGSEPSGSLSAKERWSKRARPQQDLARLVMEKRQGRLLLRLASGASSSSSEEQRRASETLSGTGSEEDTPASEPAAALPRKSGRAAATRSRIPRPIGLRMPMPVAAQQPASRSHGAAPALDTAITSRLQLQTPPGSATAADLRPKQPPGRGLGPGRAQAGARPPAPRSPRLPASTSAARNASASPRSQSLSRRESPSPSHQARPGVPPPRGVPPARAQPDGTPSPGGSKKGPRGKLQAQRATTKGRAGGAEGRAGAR
Chain of PDGFRA (human) (P16234 whole entry, looked up): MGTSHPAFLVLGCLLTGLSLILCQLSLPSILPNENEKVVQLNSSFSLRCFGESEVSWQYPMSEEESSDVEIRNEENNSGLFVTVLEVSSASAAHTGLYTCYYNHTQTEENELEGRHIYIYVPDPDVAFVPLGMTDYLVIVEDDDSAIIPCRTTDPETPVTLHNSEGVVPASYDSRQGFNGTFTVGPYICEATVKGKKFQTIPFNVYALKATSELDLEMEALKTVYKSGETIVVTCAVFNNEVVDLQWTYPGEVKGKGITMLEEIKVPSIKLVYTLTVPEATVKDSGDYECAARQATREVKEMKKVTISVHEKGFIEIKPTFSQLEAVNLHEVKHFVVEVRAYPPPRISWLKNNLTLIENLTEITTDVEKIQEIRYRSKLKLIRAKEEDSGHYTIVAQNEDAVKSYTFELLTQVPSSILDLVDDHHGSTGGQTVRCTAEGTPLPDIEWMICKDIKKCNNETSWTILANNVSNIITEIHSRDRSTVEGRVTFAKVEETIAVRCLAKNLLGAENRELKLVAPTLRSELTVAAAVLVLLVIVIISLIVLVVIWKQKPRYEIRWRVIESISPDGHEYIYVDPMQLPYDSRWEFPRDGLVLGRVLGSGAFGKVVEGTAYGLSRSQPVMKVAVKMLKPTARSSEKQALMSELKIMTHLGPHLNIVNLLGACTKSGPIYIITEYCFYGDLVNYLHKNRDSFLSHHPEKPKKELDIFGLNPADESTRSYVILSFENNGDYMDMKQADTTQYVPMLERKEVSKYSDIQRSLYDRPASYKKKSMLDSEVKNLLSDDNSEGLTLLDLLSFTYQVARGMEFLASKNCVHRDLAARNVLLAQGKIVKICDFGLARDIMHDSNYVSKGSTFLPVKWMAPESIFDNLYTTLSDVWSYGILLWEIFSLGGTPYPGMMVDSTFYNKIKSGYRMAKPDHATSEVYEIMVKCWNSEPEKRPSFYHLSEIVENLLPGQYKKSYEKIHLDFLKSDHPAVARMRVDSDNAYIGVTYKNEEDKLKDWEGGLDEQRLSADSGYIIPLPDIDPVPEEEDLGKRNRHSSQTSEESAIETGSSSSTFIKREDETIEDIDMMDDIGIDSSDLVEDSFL

## NCC(=O)Nc1ccc(-n2nc(C(F)(F)F)cc2-c2ccc3c(ccc4ccccc43)c2)cc1
GSK3B (human); compound 1.0 µM
  residual activity: 110%
GSK3B (human); compound 10.0 µM
  residual activity: 119%
ZAP70 (human); compound 1.0 µM
  residual activity: 84%
ZAP70 (human); compound 10.0 µM
  residual activity: 83%
TSSK1B (human); compound 10.0 µM
  residual activity: 83%
TTBK1 (human); compound 1.0 µM
  residual activity: 88%
SRPK1 (human); compound 1.0 µM
  residual activity: 94%
SRPK1 (human); compound 10.0 µM
  residual activity: 80%
PDGFRA (human); compound 1.0 µM
  residual activity: 82%
PDGFRA (human); compound 10.0 µM
  residual activity: 98%
SIK3 (human); compound 1.0 µM
  residual activity: 91%
SIK3 (human); compound 10.0 µM
  residual activity: 101%
WNK1 (human); compound 10.0 µM
  residual activity: 105%
CSNK1G2 (human); compound 1.0 µM
  residual activity: 93%
CSNK1G2 (human); compound 10.0 µM
  residual activity: 90%
[1]; compound 1.0 µM
  residual activity: 98%
[1]; compound 10.0 µM
  residual activity: 98%
ULK1 (human); compound 1.0 µM
  residual activity: 86%
ULK1 (human); compound 10.0 µM
  residual activity: 97%
DDR2 (human); compound 1.0 µM
  residual activity: 92%
DDR2 (human); compound 10.0 µM
  residual activity: 101%
TEK (human); compound 1.0 µM
  residual activity: 103%
MAP4K5 (human); compound 1.0 µM
  residual activity: 80%
MAP4K5 (human); compound 10.0 µM
  residual activity: 73%
STK24 (human); compound 1.0 µM
  residual activity: 84%
STK24 (human); compound 10.0 µM
  residual activity: 70%
TTBK2 (human); compound 1.0 µM
  residual activity: 96%
TTBK2 (human); compound 10.0 µM
  residual activity: 154%
MAP4K3 (human); compound 1.0 µM
  residual activity: 84%
MAP4K3 (human); compound 10.0 µM
  residual activity: 73%
STK33 (human); compound 1.0 µM
  residual activity: 91%
STK33 (human); compound 10.0 µM
  residual activity: 92%
CDK9 CCNT1 (human); compound 1.0 µM
  residual activity: 82%
CDK9 CCNT1 (human); compound 10.0 µM
  residual activity: 83%
MAPK7 (human); compound 1.0 µM
  residual activity: 91%
MAPK7 (human); compound 10.0 µM
  residual activity: 89%
[2]; compound 1.0 µM
  residual activity: 88%
[2]; compound 10.0 µM
  residual activity: 94%
PRKCG (human); compound 1.0 µM
  residual activity: 95%
PRKCG (human); compound 10.0 µM
  residual activity: 97%
[3]; compound 1.0 µM
  residual activity: 95%
SIK2 (human); compound 1.0 µM
  residual activity: 95%
SIK2 (human); compound 10.0 µM
  residual activity: 79%
IRAK1 (human); compound 10.0 µM
  residual activity: 80%
PTK6 (human); compound 1.0 µM
  residual activity: 91%
PTK6 (human); compound 10.0 µM
  residual activity: 91%
TESK1 (human); compound 1.0 µM
  residual activity: 84%
TESK1 (human); compound 10.0 µM
  residual activity: 103%
EIF2AK3 (human); compound 1.0 µM
  residual activity: 102%
ABL1 (human); compound 1.0 µM
  residual activity: 95%
ABL1 (human); compound 10.0 µM
  residual activity: 103%
TLK1 (human); compound 1.0 µM
  residual activity: 89%
TLK1 (human); compound 10.0 µM
  residual activity: 104%

## Cc1ccc(-c2ccc3c(ccc4sc5c(c43)NC[C@@H](C)NC5=O)n2)cn1
GSK3B (human); compound 0.1 µM
  residual activity: 126%
GSK3B (human); compound 1.0 µM
  residual activity: 99%
GSK3B (human); compound 10.0 µM
  residual activity: 88%
ZAP70 (human); compound 0.1 µM
  residual activity: 93%
ZAP70 (human); compound 1.0 µM
  residual activity: 100%
TSSK1B (human); compound 0.1 µM
  residual activity: 97%
TSSK1B (human); compound 1.0 µM
  residual activity: 85%
TSSK1B (human); compound 10.0 µM
  residual activity: 89%
TTBK1 (human); compound 0.1 µM
  residual activity: 103%
TTBK1 (human); compound 1.0 µM
  residual activity: 104%
TTBK1 (human); compound 10.0 µM
  residual activity: 96%
SRPK1 (human); compound 0.1 µM
  residual activity: 89%
SRPK1 (human); compound 1.0 µM
  residual activity: 63%
SRPK1 (human); compound 10.0 µM
  residual activity: 19%
PDGFRA (human); compound 0.1 µM
  residual activity: 104%
PDGFRA (human); compound 1.0 µM
  residual activity: 108%
SIK3 (human); compound 0.1 µM
  residual activity: 98%
SIK3 (human); compound 1.0 µM
  residual activity: 99%
SIK3 (human); compound 10.0 µM
  residual activity: 73%
WNK1 (human); compound 0.1 µM
  residual activity: 113%
WNK1 (human); compound 1.0 µM
  residual activity: 108%
WNK1 (human); compound 10.0 µM
  residual activity: 119%
CSNK1G2 (human); compound 0.1 µM
  residual activity: 123%
CSNK1G2 (human); compound 1.0 µM
  residual activity: 112%
CSNK1G2 (human); compound 10.0 µM
  residual activity: 102%
ULK2 (human); compound 0.1 µM
  residual activity: 109%
ULK2 (human); compound 10.0 µM
  residual activity: 54%
ULK1 (human); compound 0.1 µM
  residual activity: 115%
ULK1 (human); compound 1.0 µM
  residual activity: 89%
ULK1 (human); compound 10.0 µM
  residual activity: 75%
DDR2 (human); compound 0.1 µM
  residual activity: 105%
DDR2 (human); compound 1.0 µM
  residual activity: 101%
DDR2 (human); compound 10.0 µM
  residual activity: 91%
TEK (human); compound 0.1 µM
  residual activity: 105%
TEK (human); compound 1.0 µM
  residual activity: 86%
TEK (human); compound 10.0 µM
  residual activity: 88%
MAP4K5 (human); compound 0.1 µM
  residual activity: 111%
MAP4K5 (human); compound 1.0 µM
  residual activity: 108%
MAP4K5 (human); compound 10.0 µM
  residual activity: 61%
STK24 (human); compound 1.0 µM
  residual activity: 109%
TTBK2 (human); compound 0.1 µM
  residual activity: 122%
TTBK2 (human); compound 1.0 µM
  residual activity: 122%
TTBK2 (human); compound 10.0 µM
  residual activity: 103%
MAP4K3 (human); compound 0.1 µM
  residual activity: 98%
MAP4K3 (human); compound 1.0 µM
  residual activity: 72%
MAP4K3 (human); compound 10.0 µM
  residual activity: 41%
STK33 (human); compound 0.1 µM
  residual activity: 105%
STK33 (human); compound 1.0 µM
  residual activity: 83%
STK33 (human); compound 10.0 µM
  residual activity: 38%
CDK9 CCNT1 (human); compound 0.1 µM
  residual activity: 109%
CDK9 CCNT1 (human); compound 1.0 µM
  residual activity: 96%
CDK9 CCNT1 (human); compound 10.0 µM
  residual activity: 51%
[2]; compound 0.1 µM
  residual activity: 68%
[2]; compound 1.0 µM
  residual activity: 21%
[2]; compound 10.0 µM
  residual activity: 6%
PRKCG (human); compound 0.1 µM
  residual activity: 118%
PRKCG (human); compound 1.0 µM
  residual activity: 110%
PRKCG (human); compound 10.0 µM
  residual activity: 101%
[3]; compound 0.1 µM
  residual activity: 113%
[3]; compound 1.0 µM
  residual activity: 112%
[3]; compound 10.0 µM
  residual activity: 118%
SIK2 (human); compound 0.1 µM
  residual activity: 99%
SIK2 (human); compound 1.0 µM
  residual activity: 86%
SIK2 (human); compound 10.0 µM
  residual activity: 77%
IRAK1 (human); compound 0.1 µM
  residual activity: 104%
IRAK1 (human); compound 1.0 µM
  residual activity: 77%
IRAK1 (human); compound 10.0 µM
  residual activity: 27%
PTK6 (human); compound 0.1 µM
  residual activity: 121%
PTK6 (human); compound 1.0 µM
  residual activity: 94%
PTK6 (human); compound 10.0 µM
  residual activity: 92%
STK16 (human); compound 0.1 µM
  residual activity: 117%
STK16 (human); compound 1.0 µM
  residual activity: 118%
STK16 (human); compound 10.0 µM
  residual activity: 105%
TESK1 (human); compound 0.1 µM
  residual activity: 112%
TESK1 (human); compound 1.0 µM
  residual activity: 111%
TESK1 (human); compound 10.0 µM
  residual activity: 101%
EIF2AK3 (human); compound 0.1 µM
  residual activity: 114%
EIF2AK3 (human); compound 1.0 µM
  residual activity: 101%
EIF2AK3 (human); compound 10.0 µM
  residual activity: 73%
ABL1 (human); compound 0.1 µM
  residual activity: 120%
ABL1 (human); compound 1.0 µM
  residual activity: 113%
ABL1 (human); compound 10.0 µM
  residual activity: 76%
TLK1 (human); compound 0.1 µM
  residual activity: 113%
TLK1 (human); compound 1.0 µM
  residual activity: 107%
TLK1 (human); compound 10.0 µM
  residual activity: 100%
